Test results from patent US10570129B2 (Zoetis Services LLC, priority 2015, dated 2020).

Columns and labels:
D. immitis microfilariae = experiment: Dirofilaria immitis, microfilariae (DiMF) in vitro motility assay; type: cell-based; settings: Dirofilaria immitis, 72 h, read-out: DiMF minimally effective dose (MEC)
Haemonchus contortus L3 = experiment: microbe, parasite or virus in culture; type: cell-based; settings: Haemonchus contortus, 96 h, read-out: HcL3 Minimal Effective Concentration (MEC)

Q: Which minimal effective concentration (D. immitis microfilariae) does the source give for N#Cc1ccc2c3c(n(C(=O)NCc4ccnc(F)c4)c2c1)CCN(C/C=C/c1cc(F)cc(OC(F)(F)F)c1)C3 [Example 54, (E)-7-cyano-2-(3-(3-fluoro-5-(trifluoromethoxy)phenyl)allyl)-N-((2-fluoro-pyridin-4-yl)methyl)-1,2,3,4-tetrahydro-5H-pyrido[4,3-b]indole-5-carboxamide] here?
A: Its minimal effective concentration is 10 µM.

Q: And the minimal effective concentration (Haemonchus contortus L3)?
A: The minimal effective concentration was over 100 µM.

Q: N#Cc1ccc2c(c1)c1c(n2C(=O)NCc2ccnc(Cl)c2)CCN(C/C=C/c2c(F)c(F)c(F)c(F)c2F)C1 [Example 83, (E)-N-((2-chloropyridin-4-yl)methyl)-8-cyano-2-(3-(perfluorophenyl)allyl)-1,2,3,4-tetrahydro-5H-pyrido[4,3-b]indole-5-carboxamide] was tested. Which minimal effective concentration (D. immitis microfilariae) did it give?
A: The minimal effective concentration was over 100 µM.

Q: What about the minimal effective concentration (Haemonchus contortus L3) of the same compound?
A: The minimal effective concentration was 0.1 µM.

Q: How did the minimal effective concentration (D. immitis microfilariae) turn out when O=C(NCc1ccnc(F)c1)n1c2c(c3cc(Cl)ccc31)CN(C/C=C/c1ccc(Cl)c(F)c1)CC2 [Example 254, (E)-8-chloro-2-(3-(4-chloro-3-fluorophenyl)allyl)-N-((2-fluoropyridin-4-yl)methyl)-1,2,3,4-tetrahydro-5H-pyrido[4,3-b]indole-5-carboxamide] was run?
A: Its minimal effective concentration is 100 µM.

Q: What about the minimal effective concentration (Haemonchus contortus L3) of the same compound?
A: Its minimal effective concentration is 3.3 µM.

Q: What does the source list for O=C(NCc1ccnc(Cl)c1)n1c2c(c3cc(Cl)c(Cl)cc31)CN(C/C=C/c1ccc(Cl)cc1)CC2 [Example 280, (E)-7,8-dichloro-2-(3-(4-chlorophenyl)allyl)-N-((2-chloropyridin-4-yl)methyl)-1,2,3,4-tetrahydro-5H-pyrido[4,3-b]indole-5-carboxamide]?
A: minimal effective concentration (D. immitis microfilariae): > 100 µM; minimal effective concentration (Haemonchus contortus L3): 0.3 µM

Q: What does the source list for COc1ccc(/C=C/CN2CCc3c(c4c(OC(F)(F)F)cccc4n3C(=O)NCc3ccnc(Cl)c3)C2)cc1 [Example 359, (E)-N-((2-chloropyridin-4-yl)methyl)-2-(3-(4-methoxyphenyl)allyl)-9-(trifluoromethoxy)-1,2,3,4-tetrahydro-5H-pyrido[4,3-b]indole-5-carboxamide]?
A: minimal effective concentration (D. immitis microfilariae): 3.3 µM; minimal effective concentration (Haemonchus contortus L3): 3.3 µM

Q: With Cc1ccc2c(c1)c1c(n2C(=O)NCc2ccnc(Cl)c2)CCN(C/C=C/c2ccc(OC(F)(F)F)cc2)C1 [Example 434, (E)-N-((2-chloropyridin-4-yl)methyl)-8-methyl-2-(3-(4-(trifluoromethoxy)-phenyl)allyl)-1,2,3,4-tetrahydro-5H-pyrido[4,3-b]indole-5-carboxamide] as the compound, how does the minimal effective concentration (D. immitis microfilariae) read?
A: The minimal effective concentration was 5.7 µM.

Q: And the minimal effective concentration (Haemonchus contortus L3)?
A: Its minimal effective concentration is 3.3 µM.

Q: Which results are given for O=C(NCc1ccnc(Cl)c1)n1c2c(c3c(Cl)cccc31)CN(C/C=C/c1ccc(C(F)(F)F)cn1)CC2 [Example 207, (E)-9-chloro-N-((2-chloropyridin-4-yl)methyl)-2-(3-(5-(trifluoromethyl)-pyridin-2-yl)allyl)-1,2,3,4-tetrahydro-5H-pyrido[4,3-b]indole-5-carboxamide]?
A: minimal effective concentration (D. immitis microfilariae): 10 µM; minimal effective concentration (Haemonchus contortus L3): 0.3 µM

Q: O=C(NCc1ccnc(Cl)c1)n1c2c(c3cc(F)c(Cl)cc31)CN(C/C=C/c1ccc(F)cc1F)CC2 [Example 299, (E)-7-chloro-N-((2-chloropyridin-4-yl)methyl)-2-(3-(2,4-difluorophenyl)-allyl)-8-fluoro-1,2,3,4-tetrahydro-5H-pyrido[4,3-b]indole-5-carboxamide] was tested. Which minimal effective concentration (D. immitis microfilariae) did it give?
A: Its minimal effective concentration is 1.8 µM.

Q: What about the minimal effective concentration (Haemonchus contortus L3) of the same compound?
A: The minimal effective concentration was 0.4 µM.

Q: Which minimal effective concentration (D. immitis microfilariae) does the source give for O=C(NCc1ccnc(Cl)c1)n1c2c(c3ccc(Cl)cc31)CN(C/C=C/c1ccc(Cl)c(Cl)c1)CC2 [Example 215, (E)-7-chloro-N-((2-chloropyridin-4-yl)methyl)-2-(3-(3,4-dichlorophenyl)allyl)-1,2,3,4-tetrahydro-5H-pyrido[4,3-b]indole-5-carboxamide] here?
A: The minimal effective concentration was 10 µM.

Q: What about the minimal effective concentration (Haemonchus contortus L3) of the same compound?
A: Its minimal effective concentration is 0.5 µM.

Q: What does the source list for CS(=O)(=O)c1ccc(/C=C/CN2CCc3c(c4ccc(C(F)(F)F)cc4n3C(=O)NCc3ccnc(Cl)c3)C2)cc1 [Example 151, (E)-N-((2-chloropyridin-4-yl)methyl)-2-(3-(4-(methylsulfonyl)phenyl)allyl)-7-(trifluoromethyl)-1,2,3,4-tetrahydro-5H-pyrido[4,3-b]indole-5-carboxamide]?
A: minimal effective concentration (D. immitis microfilariae): 13.5 µM; minimal effective concentration (Haemonchus contortus L3): > 100 µM

Q: For O=C(NCc1ccnc(Cl)c1)n1c2c(c3cc(Cl)ccc31)CN(C/C=C/c1ccc(Cl)cc1F)CC2 [Example 233, (E)-8-chloro-2-(3-(4-chloro-2-fluorophenyl)allyl)-N-((2-chloropyridin-4-yl)methyl)-1,2,3,4-tetrahydro-5H-pyrido[4,3-b]indole-5-carboxamide], which minimal effective concentration (D. immitis microfilariae) is on record?
A: Its minimal effective concentration is 1.8 µM.

Q: What about the minimal effective concentration (Haemonchus contortus L3) of the same compound?
A: The minimal effective concentration was 0.01 µM.

Q: How did the minimal effective concentration (D. immitis microfilariae) turn out when O=C(NCc1ccnc(F)c1)n1c2c(c3cc(Br)ccc31)CN(C/C=C/c1ccc(F)c(F)c1)CC2 [Example 191, (E)-8-bromo-2-(3-(3,4-difluorophenyl)allyl)-N-((2-fluoropyridin-4-yl)methyl)-1,2,3,4-tetrahydro-5H-pyrido[4,3-b]indole-5-carboxamide] was run?
A: The minimal effective concentration was 10 µM.

Q: What about the minimal effective concentration (Haemonchus contortus L3) of the same compound?
A: The minimal effective concentration was 0.3 µM.

Q: With NC(=O)c1ccc2c(c1)c1c(n2C(=O)NCc2ccnc(Cl)c2)CCN(C/C=C/c2ccc(Cl)c(F)c2)C1 [Example 467, (E)-2-(3-(4-chloro-3-fluorophenyl)allyl)-N^5-((2-chloropyridin-4-yl)methyl)-1,2,3,4-tetrahydro-5H-pyrido[4,3-b]indole-5,8-dicarboxamide] as the compound, how does the minimal effective concentration (D. immitis microfilariae) read?
A: The minimal effective concentration was 1 µM.

Q: What about the minimal effective concentration (Haemonchus contortus L3) of the same compound?
A: The minimal effective concentration was over 100 µM.

Q: With O=C(NCc1ccnc(Cl)c1)n1c2c(c3ccc(Br)cc31)CN(C/C=C/c1ccc(F)c(Cl)c1)CC2 [Example 439, (E)-7-bromo-2-(3-(3-chloro-4-fluorophenyl)allyl)-N-((2-chloropyridin-4-yl)methyl)-1,2,3,4-tetrahydro-5H-pyrido[4,3-b]indole-5-carboxamide] as the compound, how does the minimal effective concentration (D. immitis microfilariae) read?
A: The minimal effective concentration was 18.2 µM.

Q: What about the minimal effective concentration (Haemonchus contortus L3) of the same compound?
A: Its minimal effective concentration is 1.8 µM.

Q: Which minimal effective concentration (D. immitis microfilariae) does the source give for N#Cc1ccc(/C=C/CN2CCc3c(c4cc(Cl)ccc4n3C(=O)NCc3ccnc(Cl)c3)C2)cc1F [Example 235, (E)-8-chloro-N-((2-chloropyridin-4-yl)methyl)-2-(3-(4-cyano-3-fluorophenyl)allyl)-1,2,3,4-tetrahydro-5H-pyrido[4,3-b]indole-5-carboxamide] here?
A: Its minimal effective concentration is over 100 µM.

Q: What about the minimal effective concentration (Haemonchus contortus L3) of the same compound?
A: Its minimal effective concentration is 0.1 µM.

Q: With O=C(NCc1ccnc(Cl)c1)n1c2c(c3cc(C(F)(F)F)ccc31)CN(C/C=C/c1ccc(F)cc1F)CC2 [Example 412, (E)-N-((2-chloropyridin-4-yl)methyl)-2-(3-(2,4-difluorophenyl)allyl)-8-(trifluoromethyl)-1,2,3,4-tetrahydro-5H-pyrido[4,3-b]indole-5-carboxamide] as the compound, how does the minimal effective concentration (D. immitis microfilariae) read?
A: Its minimal effective concentration is 10 µM.

Q: What about the minimal effective concentration (Haemonchus contortus L3) of the same compound?
A: Its minimal effective concentration is 1.8 µM.

Q: CCOc1ccc2c(c1)c1c(n2C(=O)NCc2ccnc(Cl)c2)CCN(C/C=C/c2ccc(F)cc2)C1 [Example 514, (E)-N-((2-chloropyridin-4-yl)methyl)-8-ethoxy-2-(3-(4-fluorophenyl)allyl)-1,2,3,4-tetrahydro-5H-pyrido[4,3-b]indole-5-carboxamide] was tested. Which minimal effective concentration (D. immitis microfilariae) did it give?
A: The minimal effective concentration was 5.7 µM.

Q: What about the minimal effective concentration (Haemonchus contortus L3) of the same compound?
A: The minimal effective concentration was 5.7 µM.

Q: What does the source list for O=C(NCc1ccnc(Cl)c1)n1c2c(c3cc(Cl)ccc31)CN(C/C=C/c1ccc(Cl)cc1)CC2 [Example 242, (E)-8-chloro-2-(3-(4-chlorophenyl)allyl)-N-((2-chloropyridin-4-yl)methyl)-1,2,3,4-tetrahydro-5H-pyrido[4,3-b]indole-5-carboxamide]?
A: minimal effective concentration (D. immitis microfilariae): 10 µM; minimal effective concentration (Haemonchus contortus L3): 0.7 µM
